Test results: patent US20220273926A1, “DRUG DELIVERY USING MICRONEEDLE ARRAYS” (BOARD OF REGENTS OF THE UNIVERSITY OF NEBRASKA, priority 2019, published 2022)
“Also recorded” adds a separate entry of the source. Read-outs that look alike come from different tables or passages of the source.

Tests used:
[1] = Drug adsorption to the bandage: solution perfused through the MNAs; format: physicochemical; conditions: perfusion through bandage and MNAs; BSA 54 ng/mL, cefazolin 16 μg/mL
Description: Once the system was characterized, the efficiency of the bandage in drug delivery was evaluated. Initially, the potential drug adsorption to the engineered bandage was to be tested. […] The solution was then collected at different time points after perfusion through the MNAs and the concentration of the drugs determined using a total protein assay (for BSA) and UV-Vis spectrophotometry (for cefazolin).
Drug Delivery Characterization: The potential protein and drug adsorption by the bandage, tubing, and MNAs were investigated by perfusing a solution with known concentrations of cefazolin salt and BSA. 150 μL of the delivered solution was collected at different time points and the concentrations of cefazolin and BSA were determined by measuring the solution absorbance for cefazolin and BCA protein assay kit for BSA.

[2] = after 180 min, target 20 μg/mL
From the text: The intradermal drug delivery kinetics were further evaluated by developing an in vitro model mimicking the structure of wounds in which eschar and granulation tissue separates the endothelial cells from the outside environment. This model, illustrated schematically in FIG. 2a, consisted of a cell culture insert with a porous membrane covered by agarose (3% w/v) with ˜2 mm thickness, and the bottom well represented the environment of endothelial cells.
Assessment of release kinetics: To mimic the chronic wound tissue, 12-well cell culture inserts were filled with 150 μL of 3% (w/v) agarose. […] Inserts were divided into 3 groups (4 replicate/group) with respect to the method of delivery, including topical, MNA, and LJI. To measure the concentration of the delivered solution, at each time point 100 μL was removed and then replaced with the same volume of fresh PBS. After collecting all samples, the concentration was measured by a plate reader (Cytation 5, BioTek) followed by data analysis to extract the related release graphs. In the case of BSA, measurement process was followed based on manufacturer's protocol.

keratinocytes = test: Scratch test assay on keratinocytes contaminated with S. aureus; format: cell-based, human; conditions: keratinocyte monolayer contaminated with S. aureus
Description: A standard scratch test assay was used to evaluate the cell migration in presence of bacteria. […] To perform this experiment, the scratch was created over a monolayer of the confluent keratinocytes, which were contaminated with S. aureus in advance. Three groups were used for this set of experiments: (1) cefazolin powder as a positive control, (2) alginate without antibiotic loading as a negative control, and (3) alginate containing cefazolin.
Keratinocytes (1×10^5) were seeded and cultured in a six-well plate and kept overnight to make a confluent monolayer overnight. The 1 mm wide gap scratch was then created onto the monolayer with a 200 μL pipette tip, and floating cells were removed by twice washing with PBS. After the line scratches, 2 mL of DMEM was added for each group. To detect the efficacy of treatments on cell migration, samples were continually imaged for 0, 8, 24, and 48 h. Images of the monolayer were taken by a microscope and cell migration activity was evaluated as the migration distance from the edges of the scratch toward the center of it using Image J software (NIH, Bethesda, Md., USA). For each well, ten images were taken and selected randomly. Experiments were done independently in triplicate.

[3] = Cefazolin release from thermo-responsive alginate/PNIPAM patch with heater; format: physicochemical; conditions: PNIPAM carriers in alginate patch, heat applied; over 1 h
From the text: To minimize the thermal contact resistance between the microheater and the hydrogel layer, the hydrogel was directly cast on top of the heater. Chronic wounds are known for their high rate of exudate generation and thus exudate management is important in the proper function of the sensors and drug delivery modules. The utilized alginate-based hydrogels are known for high water uptake and swelling ratios and have been used in engineering wet wound dressings. In addition, since the sensors are in direct contact with the skin, the swelling of the hydrogels is not expected to affect the readout. To visualize the drug release, rhodamine B was loaded into PNIPAM particles and the system was heated while being monitored under a microscope. […] After applying heat to the alginate patch, the cefazolin release profile was measured over time. […] To assess the possibility of releasing drugs in a dynamic fashion, heat was applied periodically (30 min on, 30 min off) and the drug release amount was determined. […]
Drug Release with Integrated Heaters: Alginate hydrogel with embedded drug microcarriers was attached on the surface of the microheater while 200 μL PBS was added into the plate and electrical voltage was applied to generate heat. The drug released into the solution was evaluated using plate reader.

- delivered into the bottom chamber (overall efficiency of delivery) ([2]; LJI): more than 90%
- delivered into the bottom chamber (overall efficiency of delivery) ([2]; MNAs): ~65%
- delivered into the bottom chamber (overall efficiency of delivery) ([2]; topical (TOP)): ~25%
- drug released [3]: about 80%
Compound: Cc1nnc(SCC2=C(C(=O)O)N3C(=O)[C@@H](NC(=O)Cn4cnnn4)[C@H]3SC2)s1 [cefazolin]
- temporal changes in the drug concentration within the perfused solution [1]: not statistically significant; also recorded: insignificant change in concentration
- cell migration in scratch assay (keratinocytes): rapid migration toward the opening area was observed
